Molecular target: Human Full Length PARG (Homo sapiens (Human), UniProt Q86W56)
Test: PARG in vitro enzyme assay (TR-FRET)
Assay type: biochemical
Conditions: read-out: PARG_EC50_ENZYME
Protocol: PARG In vitro assays were conducted in a total volume of 15 ul in a standard 384 well format. 5 ul of Human Full Length PARG (Produced internally by Astra Zeneca), used at a final reaction concentration of […], was added to 5 ul of Ribosylated PARP substrate (also produced internally by Astra Zeneca) at final reaction concentration of 4.5 nM in assay buffer (50 mM Tris pH7.4, 0.1 mg/ml BSA, 3 mM EDTA, 0.4 mM EGTA, 1 mM DTT, 0.01% Tween 20, 50 mM KCl). The reaction was incubated at room temperature for 10 minutes and then 5 ul detection reagent was added. Detection Reagent consists of 42 nM MAb Anti-6HIS XL665 (CisBio: 61 HISXLB) and 2.25 nM Streptavidin Europium Cryptate (CisBio: 610SAKLB), both at 3× working stock concentrations (final concentrations of 14 nM and 0.75 nM respectively), in a detection buffer of 50 mM Tris pH7.4, BSA at 0.1 mg/ml and KF at 100 mM. Following incubation at room temperature for 60 minutes in the dark, TR-FRET signal was measured at Ex 340 and Em 665 and Em 620. A ratio was calculated as Em665/EM620×104 for each well and used to calculate percent inhibition for test compounds.

Human Full Length PARG, sequence (Q86W56 whole entry): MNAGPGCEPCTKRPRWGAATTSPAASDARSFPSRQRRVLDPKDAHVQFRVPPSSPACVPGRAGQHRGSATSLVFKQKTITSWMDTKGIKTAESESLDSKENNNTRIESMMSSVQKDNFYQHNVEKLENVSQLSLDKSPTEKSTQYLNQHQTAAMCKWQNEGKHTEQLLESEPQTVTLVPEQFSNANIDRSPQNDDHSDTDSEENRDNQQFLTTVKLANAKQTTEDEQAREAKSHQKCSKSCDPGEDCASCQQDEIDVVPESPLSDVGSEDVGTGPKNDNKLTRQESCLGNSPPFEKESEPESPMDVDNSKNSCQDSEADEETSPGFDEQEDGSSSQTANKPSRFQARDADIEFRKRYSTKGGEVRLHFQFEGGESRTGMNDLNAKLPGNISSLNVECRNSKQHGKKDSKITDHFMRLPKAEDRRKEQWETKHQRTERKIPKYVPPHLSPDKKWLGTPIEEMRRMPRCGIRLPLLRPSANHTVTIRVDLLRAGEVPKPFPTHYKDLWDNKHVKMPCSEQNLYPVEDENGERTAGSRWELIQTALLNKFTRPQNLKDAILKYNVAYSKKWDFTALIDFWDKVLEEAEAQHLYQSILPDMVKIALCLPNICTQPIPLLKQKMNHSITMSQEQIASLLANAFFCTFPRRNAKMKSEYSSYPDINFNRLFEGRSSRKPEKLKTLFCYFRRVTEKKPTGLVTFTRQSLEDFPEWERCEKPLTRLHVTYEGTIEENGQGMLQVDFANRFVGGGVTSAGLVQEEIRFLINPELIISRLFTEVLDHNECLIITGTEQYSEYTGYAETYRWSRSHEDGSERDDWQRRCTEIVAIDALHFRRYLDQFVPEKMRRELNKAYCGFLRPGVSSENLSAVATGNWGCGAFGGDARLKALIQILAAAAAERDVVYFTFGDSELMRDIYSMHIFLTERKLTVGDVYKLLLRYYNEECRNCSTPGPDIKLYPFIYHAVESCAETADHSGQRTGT

Row | EC50 | Compound
1 | 9.41 µM | Cn1c(=O)n(Cc2c(Cl)cccc2Cl)c2ccc(S(=O)(=O)NC3(C)CC3)cc21 [Example 1]
2 | 5 µM | Cn1c(=O)n(CC2CC2)c2ccc(S(=O)(=O)NC3(C)CC3)cc21 [Example 2]
3 | 8.28 µM | Cn1c(=O)n(Cc2ccccc2)c2ccc(S(=O)(=O)NC3(C)CC3)cc21 [Example 3]
4 | 2.91 µM | CC1(NS(=O)(=O)c2ccc3c(c2)n(-c2ccccc2)c(=O)n3CC2CC2)CC1 [Example 4]
5 | 6.76 µM | Cn1c(=O)n(Cc2cccnc2)c2ccc(S(=O)(=O)NC3(C)CC3)cc21 [Example 5]
6 | 8.32 µM | Cn1c(=O)n(CC2CC2(F)F)c2ccc(S(=O)(=O)NC3(C)CC3)cc21 (stereo not drawn) [Example 6]
7 | 9.79 µM | CC(C)Cn1c(=O)n(C)c2cc(S(=O)(=O)NC3(C)CC3)ccc21 [Example 7]
8 | 4.51 µM | CC1CC1Cn1c(=O)n(C)c2cc(S(=O)(=O)NC3(C)CC3)ccc21 (stereo not drawn) [Example 8]
9 | 4.04 µM | Cn1c(=O)n(CC2(C)CC2)c2ccc(S(=O)(=O)NC3(C)CC3)cc21 [Example 9]
10 | 8.42 µM | Cn1c(=O)n(CC2(C)COC2)c2ccc(S(=O)(=O)NC3(C)CC3)cc21 [Example 10]
11 | 4.67 µM | Cn1c(=O)n(CC2CCC2)c2ccc(S(=O)(=O)NC3(C)CC3)cc21 [Example 11]
12 | 8.29 µM | Cn1c(=O)n(CC2CCCCC2)c2ccc(S(=O)(=O)NC3(C)CC3)cc21 [Example 12]
13 | 7.12 µM | Cn1c(=O)n(Cc2ccncc2)c2ccc(S(=O)(=O)NC3(C)CC3)cc21 [Example 13]
14 | 6.59 µM | Cn1c(=O)n(CC(C)(C)C)c2ccc(S(=O)(=O)NC3(C)CC3)cc21 [Example 15]
15 | 3.39 µM | Cn1c(=O)n(CC2CCCC2)c2ccc(S(=O)(=O)NC3(C)CC3)cc21 [Example 16]
16 | 4.78 µM | C#CCn1c(=O)n(C)c2cc(S(=O)(=O)NC3(C)CC3)ccc21 [Example 17]
17 | 7.56 µM | C=CCn1c(=O)n(C)c2cc(S(=O)(=O)NC3(C)CC3)ccc21 [Example 18]
18 | 5.36 µM | Cn1c(=O)n(CCC2CC2)c2ccc(S(=O)(=O)NC3(C)CC3)cc21 [Example 19]
19 | 3.5 µM | Cc1ccc(Cn2c(=O)n(C)c3cc(S(=O)(=O)NC4(C)CC4)ccc32)o1 [Example 20]
20 | 5.23 µM | CC1(NS(=O)(=O)c2ccc3c(c2)N(C(=O)CN2CCNC2=O)CC3)CC1 [Example 21, N-(1-Methylcyclopropyl)-1-[2-(2-oxoimidazolidin-1-yl)acetyl]indoline-6-sulfonamide]
21 | 9.18 µM | CC(=O)OCCn1c(=O)n(C)c2cc(S(=O)(=O)NC3(C)CC3)ccc21 [Example 22]
22 | 8.83 µM | Cn1ccc(Cn2c(=O)n(C)c3cc(S(=O)(=O)NC4(C)CC4)ccc32)n1 [Example 23]
23 | 2.8 µM | CC(=O)n1c(=O)n(C)c2ccc(S(=O)(=O)NC3(C)CC3)cc21 [Example 24]

Row | EC50 | Compound
24 | 8.92 µM | CN1CCN(CC(=O)N2CCc3ccc(S(=O)(=O)NC4(C)CC4)cc32)C1=O [Example 25, N-(1-Methylcyclopropyl)-1-[2-(3-methyl-2-oxo-imidazolidin-1-yl)acetyl]indoline-6-sulfonamide]
25 | 6.99 µM | Cn1c(=O)n(-c2ccsc2)c2cc(S(=O)(=O)NC3(C)CC3)ccc21 [Example 26]
26 | 0.925 µM | Cn1c(=O)n(C(=O)c2ccccc2)c2cc(S(=O)(=O)NC3(C)CC3)ccc21 [Example 27]
27 | 0.352 µM | Cn1c(=O)n(C(=O)C2CCCCC2)c2cc(S(=O)(=O)NC3(C)CC3)ccc21 [Example 28]
28 | 4.46 µM | Cc1ccc(C(=O)n2c(=O)n(C)c3ccc(S(=O)(=O)NC4(C)CC4)cc32)cc1 [Example 29]
29 | 9.57 µM | Cc1cccc(C(=O)n2c(=O)n(C)c3ccc(S(=O)(=O)NC4(C)CC4)cc32)c1 [Example 30]
30 | 4.91 µM | Cc1ccccc1C(=O)n1c(=O)n(C)c2ccc(S(=O)(=O)NC3(C)CC3)cc21 [Example 31]
31 | 6.86 µM | CCNC(=O)n1c(=O)n(C)c2ccc(S(=O)(=O)NC3(C)CC3)cc21 [Example 32]
32 | 6.31 µM | Cc1cccc(Cn2c(=O)n(C)c3cc(S(=O)(=O)NC4(C)CC4)ccc32)c1 [Example 33]
33 | 6.21 µM | Cc1ccc(Cn2c(=O)n(C)c3cc(S(=O)(=O)NC4(C)CC4)ccc32)cc1 [Example 34]
34 | 7.69 µM | COc1ccccc1Cn1c(=O)n(C)c2cc(S(=O)(=O)NC3(C)CC3)ccc21 [Example 35]
35 | 6.17 µM | COc1cccc(Cn2c(=O)n(C)c3cc(S(=O)(=O)NC4(C)CC4)ccc32)c1 [Example 36]
36 | 3.15 µM | COc1ccc(Cn2c(=O)n(C)c3cc(S(=O)(=O)NC4(C)CC4)ccc32)cc1 [Example 37]
37 | 5.71 µM | Cn1c(=O)n(Cc2cccc(Cl)c2)c2ccc(S(=O)(=O)NC3(C)CC3)cc21 [Example 38]
38 | 3.74 µM | Cn1c(=O)n(Cc2ccc(Cl)cc2)c2ccc(S(=O)(=O)NC3(C)CC3)cc21 [Example 39]
39 | 6.3 µM | Cn1c(=O)n(Cc2ccccc2F)c2ccc(S(=O)(=O)NC3(C)CC3)cc21 [Example 40]
40 | 5.77 µM | Cn1c(=O)n(Cc2cccc(F)c2)c2ccc(S(=O)(=O)NC3(C)CC3)cc21 [Example 41]
41 | 2.35 µM | Cn1c(=O)n(Cc2ccc(F)cc2)c2ccc(S(=O)(=O)NC3(C)CC3)cc21 [Example 42]
42 | 5.25 µM | Cn1c(=O)n(Cc2ccccc2C#N)c2ccc(S(=O)(=O)NC3(C)CC3)cc21 [Example 43]
43 | 3.35 µM | Cn1c(=O)n(Cc2cccc(C#N)c2)c2ccc(S(=O)(=O)NC3(C)CC3)cc21 [Example 44]
44 | 3.2 µM | Cn1c(=O)n(Cc2ccc(C#N)cc2)c2ccc(S(=O)(=O)NC3(C)CC3)cc21 [Example 45]
45 | 9.75 µM | Cn1c(=O)n(Cc2ccccc2C(F)(F)F)c2ccc(S(=O)(=O)NC3(C)CC3)cc21 [Example 46]
46 | 5.72 µM | Cn1c(=O)n(Cc2c(F)cccc2F)c2ccc(S(=O)(=O)NC3(C)CC3)cc21 [Example 47]

Row | EC50 | Compound
47 | 7.83 µM | Cn1c(=O)n(Cc2cc(Cl)cc(Cl)c2)c2ccc(S(=O)(=O)NC3(C)CC3)cc21 [Example 48]
48 | 5.07 µM | Cc1cc(C)cc(Cn2c(=O)n(C)c3cc(S(=O)(=O)NC4(C)CC4)ccc32)c1 [Example 49]
49 | 4.91 µM | COc1cc(Cn2c(=O)n(C)c3cc(S(=O)(=O)NC4(C)CC4)ccc32)cc(OC)c1 [Example 50]
50 | 5.26 µM | Cn1c(=O)n(Cc2cc(F)cc(F)c2)c2ccc(S(=O)(=O)NC3(C)CC3)cc21 [Example 51]
51 | 5.16 µM | Cn1c(=O)n(-c2ccco2)c2cc(S(=O)(=O)NC3(C)CC3)ccc21 [Example 52]
52 | 2.86 µM | Cn1c(=O)n(-c2nccs2)c2cc(S(=O)(=O)NC3(C)CC3)ccc21 [Example 53]
53 | 9.07 µM | Cn1c(=O)n(-c2ccc(C=O)s2)c2cc(S(=O)(=O)NC3(C)CC3)ccc21 [Example 54]
54 | 7.05 µM | CNC(=O)n1c(=O)n(C)c2ccc(S(=O)(=O)NC3(C)CC3)cc21 [Example 55]
55 | 8.3 µM | Cn1c(=O)n(C)c2cc(S(=O)(=O)NC3(C)CC3)c(F)cc21 [Example 56, 6-Fluoro-1,3-dimethyl-N-(1-methylcyclopropyl)-2-oxo-benzimidazole-5-sulfonamide]
56 | 5.63 µM | Cn1c(=O)n(-c2ccccc2)c2ccc(S(=O)(=O)NC3(C)CC3)cc21 [Example 57]
57 | 4.65 µM | Cn1c(=O)n(Cc2ccc(C#N)c(F)c2)c2ccc(S(=O)(=O)NC3(C)CC3)cc21 [Example 58]
58 | 2.66 µM | Cn1c(=O)n(Cc2ccc(C(N)=O)cc2)c2ccc(S(=O)(=O)NC3(C)CC3)cc21 [Example 59]
59 | 5.96 µM | CNC(=O)c1noc(Cn2c(=O)n(C)c3cc(S(=O)(=O)NC4(C)CC4)ccc32)n1 [Example 60]
60 | 6.06 µM | Cn1c(=O)n(Cc2cccc(C(N)=O)c2)c2ccc(S(=O)(=O)NC3(C)CC3)cc21 [Example 61]
61 | 5.9 µM | Cn1c(=O)n(Cc2ccc([N+](=O)[O-])o2)c2ccc(S(=O)(=O)NC3(C)CC3)cc21 [Example 62]
62 | 4.17 µM | CC(=O)Nc1ccc(Cn2c(=O)n(C)c3cc(S(=O)(=O)NC4(C)CC4)ccc32)cc1 [Example 63]
63 | 8.5 µM | Cn1nccc1Cn1c(=O)n(C)c2cc(S(=O)(=O)NC3(C)CC3)ccc21 [Example 64]
64 | 9.8 µM | Cc1ncc(Cn2c(=O)n(C)c3cc(S(=O)(=O)NC4(C)CC4)ccc32)s1 [Example 65]
65 | 1.35 µM | CCOC(=O)n1c(=O)n(C)c2ccc(S(=O)(=O)NC3(C)CC3)cc21 [Example 66]
66 | 4.45 µM | Cn1c(=O)n(-c2ccc(/C=C/C(=O)O)o2)c2cc(S(=O)(=O)NC3(C)CC3)ccc21 [Example 67, (E)-3-[5-[3-Methyl-6-[(1-methylcyclopropyl)sulfamoyl]-2-oxo-benzimidazol-1-yl]-2-furyl]prop-2-enoic acid]
67 | 0.902 µM | Cc1nnc(-n2c(=O)n(C)c3ccc(S(=O)(=O)NC4(C)CC4)cc32)s1 [Example 68]
68 | 3.21 µM | Cn1c(=O)n(-c2ncc(/C=C/C(=O)O)s2)c2cc(S(=O)(=O)NC3(C)CC3)ccc21 [Example 69, (E)-3-[2-[3-methyl-6-[(1-methylcyclopropyl)sulfamoyl]-2-oxo-benzimidazol-1-yl]thiazol-5-yl]prop-2-enoic acid]
69 | 0.804 µM | Cn1c(=O)n(-c2ncc(CCC(=O)O)s2)c2cc(S(=O)(=O)NC3(C)CC3)ccc21 [Example 70, 3-[2-[3-Methyl-6-[(1-methylcyclopropyl)sulfamoyl]-2-oxo-benzimidazol-1-yl]thiazol-5-yl]propanoic acid]

From patent US10508086B2 (CANCER RESEARCH TECHNOLOGY LIMITED, priority 2014, dated 2019)
